Where two headings read alike, the source gives them in different places.
Test system: ATF4 translation
Experiment: ATF4 Nano Luciferase reporter integrated stress response (ISR) assay in H4 ATF4-NLuc cells
Type: cell-based, human
Conditions: H4 ATF4-NLuc (clone 17) cells, compound 30 minutes, then sodium arsenite for 6 additional hours, luminescence readout
Excerpt: Cellular stress leads to activation of the integrated stress response pathway through one of four eukaryotic initiation factor 2a kinases and halts global translation, while allowing for the translation of select transcripts like ATF4 (activating transcription factor 4) that are important for the response to cellular stress. During normal conditions, small open reading frames (ORFs) in the 5′ UTR of ATF4 occupy the ribosome and prevent translation of the coding sequence of ATF4. During stress conditions however, the ribosome scans past these upstream ORFs and preferentially begins translation at the coding sequence of ATF4. In this way, the translation, and thus protein level of ATF4 is a readout of ISR pathway activation. Thus, a fusion of the uORFs and the beginning of the coding sequence of ATF to a common cellular reporter like nano-luciferase allows for a sensitive and high-throughput readout of ISR pathway activity.
Compounds as provided herein were tested in the following assay. The ATF4 Nano Luciferase reporter was constructed by fusing the human full length 5′ untranslated region (5′-UTR) and a small portion of the coding sequence of the ATF4 gene upstream of the Nano Luciferase (NLuc) coding sequence lacking it's start codon. Specifically, nucleotides +1 through +364 (relative to the transcriptional start site) of ATF4 transcript variant 2 (NCBI NM_182810.2) flanked 5′ by EcoRI and 3′ by BamHI restriction enzyme sites were synthesized and cloned into the EcoRI/BamHI cloning sites of pLVX-EF1a-IRES-Puro lentivirus vector (Clontech). Lentiviral particles were produced with Lenti-X single shots (VSV-G, Clontech) according to the manufacturer's instructions and used to transduce a human H4 neuroglioma cell line (ATCC HTB-148). H4 cells were selected with 1.25 μg/mL Puromycin, and clonal cell lines generated by limiting dilution. We utilized this cell line to generate an integrated stress response (ISR) assay to evaluate the activity of ISR pathway inhibitors via luminescence readout. The H4 ATF4-NLuc (clone 17) cell line is plated at a density of […] in 96-well or 384-well respectively in DMEM+[…]. 24-hours later test compounds diluted in dimethyl sulfoxide (DMSO) are added for 30 minutes at 37° C., followed by ISR pathway activation with […] sodium arsenite aqueous solution for 6 additional hours. Nano Glo luciferase reagent (N1150, Promega) is added according to manufacturer instructions and the luminescence signal (corresponding to the level of ATF4 translation and thus ISR pathway activation) is read with a standard plate reader with luminescence detection capabilities. […] In the tables below, activity of the tested compounds is provided, and in Table 3 as follows: […]; ++=IC50 1-10 μM; +=IC50>10 μM.

[1] = Homo sapiens, 0.5 h, read-out: Activity
[2] = Homo sapiens, 0.5 h, read-out: Biological Example 1 (ATF4 translation, IC50 nM)

| Structure (SMILES) | IC50 [1] [nM] | IC50 [2] [nM] | IC50 (read-out: Activity) [nM] |
| --- | --- | --- | --- |
| O=C(COc1ccc(Cl)cc1)N[C@H]1CO[C@H](c2nnc(C3CC(OC(F)(F)F)C3)o2)C[C@@H]1F (stereo partly drawn) [Example 67, 2-(4-chlorophenoxy)-N-((3S,4S,6S)-4-fluoro-6-(5-(3-cis-(trifluoromethoxy)cyclobutyl)-1,3,4-oxadiazol-2-yl)tetrahydro-2H-pyran-3-yl)acetamide] | < 1000 | 3.1 |  |
| O=C(N[C@@H]1CC[C@@H](c2nnc(C3CC(OC(F)(F)F)C3)o2)OC1)c1ccc2cc(F)c(F)cc2n1 (stereo partly drawn) [Example 75, 6,7-difluoro-N-((3R,6S)-6-(5-(3-cis-(trifluoromethoxy)cyclobutyl)-1,3,4-oxadiazol-2-yl)tetrahydro-2H-pyran-3-yl)quinoline-2-carboxamide] | < 1000 | 8.9 |  |
| O=C(COc1ccc(Cl)c(F)c1)N[C@@H]1CC[C@@H](c2nnc([C@H]3C[C@@H](OC(F)(F)F)C3)o2)OC1 [Example 1, 2-(4-chloro-3-fluoro-phenoxy)-N-[(3R,6S)-6-[5-[3-cis-(trifluoromethoxy)cyclobutyl]-1,3,4-oxadiazol-2-yl]tetrahydropyran-3-yl]acetamide] | < 1000 |  |  |
| O=C(COc1ccc(C(F)(F)F)nc1)N[C@@H]1CC[C@@H](c2nnc([C@H]3C[C@@H](OC(F)(F)F)C3)o2)OC1 [Example 39, N-[(3R,6S)-6-[5-[3-cis-(trifluoromethoxy)cyclobutyl]-1,3,4-oxadiazol-2-yl]tetrahydropyran-3-yl]-2-[[6-(trifluoromethyl)-3-pyridyl]oxy]acetamide] | < 1000 | 36 |  |
| O=C(N[C@@H]1CC[C@@H](c2nnc(C3CC(OC(F)(F)F)C3)o2)OC1)C1CCc2cc(Cl)ccc2O1 (stereo partly shown) [Example 45] | < 1000 |  |  |
| O=C(COc1ccc(F)c(F)c1)N[C@@H]1CC[C@@H](c2nnc([C@H]3C[C@@H](OC(F)(F)F)C3)o2)OC1 [Example 24, 2-(3,4-difluorophenoxy)-N-((3R,6S)-6-(5-(3-cis-(trifluoromethoxy)cyclobutyl)-1,3,4-oxadiazol-2-yl)tetrahydro-2H-pyran-3-yl)acetamide] | < 1000 | 10.5 |  |
| O=C(COc1ccc(Cl)c(F)c1)N[C@@H]1CC[C@@H](c2nc([C@H]3C[C@@H](OC(F)(F)F)C3)no2)OC1 [Example 58, 2-(4-chloro-3-fluorophenoxy)-N-((3R,6S)-6-(3-(3-cis-(trifluoromethoxy)cyclobutyl)-1,2,4-oxadiazol-5-yl)tetrahydro-2H-pyran-3-yl)acetamide] | < 1000 | 3.7 |  |
| O=C(N[C@@H]1CC[C@@H](c2nnc(C3CC(OC(F)(F)F)C3)o2)OC1)c1nc2cc(Cl)ccc2s1 (stereo partly drawn) [Example 43, 5-chloro-N-((3R,6S)-6-(5-(3-cis-(trifluoromethoxy)cyclobutyl)-1,3,4-oxadiazol-2-yl)tetrahydro-2H-pyran-3-yl)benzo[d]thiazole-2-carboxamide] | < 1000 |  |  |
| O=C(COC1CC(OC(F)(F)F)C1)NC12CCC(c3cnn(-c4ccc(Cl)c(F)c4)c3)(CC1)OC2 (stereo not shown) [Example 48] | < 1000 |  |  |
| O=C(COc1ccc(Cl)cc1)N[C@H]1CO[C@H](c2nnc([C@H]3C[C@@H](OC(F)(F)F)C3)o2)CC1(F)F [Example 41, N-[(3S,6S)-4,4-difluoro-6-[5-[3-cis-(trifluoromethoxy)cyclobutyl]-1,3,4-oxadiazol-2-yl]tetrahydropyran-3-yl]-2-(4-chlorophenoxy)acetamide] | < 1000 | 13.5 |  |
| O=C(COc1ccc(F)cc1F)N[C@@H]1CC[C@@H](c2nnc([C@H]3C[C@@H](OC(F)(F)F)C3)o2)OC1 [Example 37, 2-(2,4-difluorophenoxy)-N-[(3R,6S)-6-[5-[3-cis-(trifluoromethoxy)cyclobutyl]-1,3,4-oxadiazol-2-yl]tetrahydropyran-3-yl]acetamide] | < 1000 |  |  |
| O=C(COc1ccc(F)cc1F)NC12CCC(c3nnc([C@H]4C[C@@H](OC(F)(F)F)C4)o3)(CC1)OC2 [Example 34, 2-(2,4-difluorophenoxy)-N-[1-[5-[3-cis-(trifluoromethoxy)cyclobutyl]-1,3,4-oxadiazol-2-yl]-2-oxabicyclo[2.2.2]octan-4-yl]acetamide] | < 1000 |  |  |
| O=C(N[C@@H]1CC[C@@H](c2nnc(C3CC(OC(F)(F)F)C3)o2)OC1)c1cn2ccc(Br)cc2n1 (stereo partly drawn) [Example 42, 7-bromo-N-((3R,6S)-6-(5-(3-cis-(trifluoromethoxy)cyclobutyl)-1,3,4-oxadiazol-2-yl)tetrahydro-2H-pyran-3-yl)imidazo[1,2-a]pyridine-2-carboxamide] | < 1000 |  |  |
| Cc1ccc(OCC(=O)N[C@@H]2CC[C@@H](c3nnc([C@H]4C[C@@H](OC(F)(F)F)C4)o3)OC2)cc1 [Example 28, 2-(4-methylphenoxy)-N-[(3R,6S)-6-[5-[3-cis-(trifluoromethoxy)cyclobutyl]-1,3,4-oxadiazol-2-yl]tetrahydropyran-3-yl]acetamide] | < 1000 |  |  |
| O=C(COc1ccc(Cl)cc1)N[C@@H]1CC[C@@H](C(O)COC2CC(OC(F)(F)F)C2)OC1 (single isomer, unassigned) [Example 63] | < 1000 | 3.9 |  |
| O=C(N[C@@H]1CC[C@@H](c2nnc(C3CC(OC(F)(F)F)C3)o2)OC1)[C@@H]1CCc2cc(F)ccc2O1 (stereo partly drawn) [Example 66, 6-fluoro-N-((3R,6S)-6-(5-(3-cis-(trifluoromethoxy)cyclobutyl)-1,3,4-oxadiazol-2-yl)tetrahydro-2H-pyran-3-yl)chroman-2-carboxamide] | < 1000 |  |  |
| O=C(COc1ccc(F)cc1)NC12CCC(c3nnc([C@H]4C[C@@H](OC(F)(F)F)C4)o3)(CC1)OC2 [Example 22, 2-(4-fluorophenoxy)-N-[1-[5-[3-cis-(trifluoromethoxy)cyclobutyl]-1,3,4-oxadiazol-2-yl]-2-oxabicyclo[2.2.2]octan-4-yl]acetamide] | < 1000 |  |  |
| O=C(N[C@@H]1CC[C@@H](c2nnc(C3CC(OC(F)(F)F)C3)o2)OC1)c1ccc2c(F)c(F)ccc2n1 (stereo partly shown) [Example 76] | < 1000 |  |  |
| O=C(N[C@@H]1CC[C@@H](c2nnc(C3CC(OC(F)(F)F)C3)o2)OC1)c1ccc2cc(F)ccc2n1 (stereo partly drawn) [Example 57, 6-fluoro-N-((3R,6S)-6-(5-(3-cis-(trifluoromethoxy)cyclobutyl)-1,3,4-oxadiazol-2-yl)tetrahydro-2H-pyran-3-yl)quinoline-2-carboxamide] | < 1000 |  |  |
| CC(O)(COC1CC(OC(F)(F)F)C1)[C@@H]1CC[C@@H](NC(=O)COc2ccc(Cl)cc2)CO1 (single isomer, unassigned) [Example 71] | < 1000 |  |  |
| CC(O)(COC1CC(OC(F)(F)F)C1)[C@@H]1CC[C@@H](NC(=O)COc2ccc(Cl)cc2)CO1 (single isomer, unassigned) [Example 72] |  |  | < 1000 |
| O=C(COc1ccc(Cl)c(F)c1)N[C@@H]1CC[C@@H](c2nnc(COC(F)(F)F)o2)OC1 [Example 55] |  | 22.7 |  |
| COC(=O)[C@@H]1CC[C@@H](NC(=O)COc2ccc(Cl)cc2)CO1 [Example 23, Methyl (2S,5R)-5-[[2-(4-chlorophenoxy)acetyl]amino]tetrahydropyran-2-carboxylate] | 1000 to 10000 |  |  |
| O=C(COC1CC(OC(F)(F)F)C1)N[C@@H]1CC[C@@H](c2cc(-c3ccc(Cl)c(F)c3)no2)OC1 (stereo partly shown) [Example 50] | < 1000 | 38 |  |
| O=C(COc1ccc(F)cc1)N[C@@H]1CC[C@@H](c2noc(C3CC(OC(F)(F)F)C3)n2)OC1 (stereo partly shown) [Example 53] | < 1000 |  |  |
| O=C(COc1ccc(Cl)cc1)N[C@@H]1CC[C@@H](c2nnc([C@H]3C[C@@H](OC(F)(F)F)C3)o2)OC1 [Example 2, 2-(4-chlorophenoxy)-N-[(3R,6S)-6-[5-[3-cis-(trifluoromethoxy)cyclobutyl]-1,3,4-oxadiazol-2-yl]tetrahydropyran-3-yl]acetamide] | < 1000 | 2.7 |  |
| O=C(COc1ccc(Cl)c(F)c1)NC12CCC(c3nnc([C@H]4C[C@@H](OC(F)(F)F)C4)o3)(CC1)OC2 [Example 21, 2-(4-chloro-3-fluoro-phenoxy)-N-[1-[5-[3-cis-(trifluoromethoxy)cyclobutyl]-1,3,4-oxadiazol-2-yl]-2-oxabicyclo[2.2.2]octan-4-yl]acetamide] | < 1000 | 4 |  |
